Measurements from article PMC10483468, “Biomimetic Dispersive Solid-Phase Microextraction: A Novel Concept for High-Throughput Estimation of Human Oral Absorption of Organic Compounds” (Analytical Chemistry, 2023).
“And” between values parts separate entries of the source, which are not always exact repeats. Equal entries are not always repeated.

What was measured:
[1] = Dispersive biomimetic solid-phase extraction (d-BMSPE) with PC-modified POP material; format: in vitro ADME; conditions: 30 min; for d-BMSPE extraction efficiency: 3.5 mg/L CEC in 5 mL PBS pH 7.4, ca. 40 mg PC-modified POP, 15 rpm, 37 °C; for RMBE·10^4 (relative mol bioextraction): value = RMBE x 10^4, mol analyte extracted per mol PC attached, PBS pH 7.4, 37 °C
Method: The experimental procedure starts by spiking 5 mL of PBS at pH 7.4 mimicking pH conditions from the small intestine with 3.5 mg L^–1 of the selected CEC and mixing with ca. 40 mg of PC-modified POP material. The material is dispersed gently in the solution at 15 rpm for 30 min at physiological temperature (37 °C) using a lab rotator, followed by separation of the biomimetic material by centrifugation. After separation, the supernatant of the biomimetic extractions is analyzed by HPLC. The bioextractable fraction of every CEC is determined by subtraction from the original spike concentration.
Following the fabrication of the biomimetic polymer, several considerations should be set before carrying out the d-BMSPE. First, the amount of PC on the modified polymer (GMA@HMD@GA@HMD@PCs) to simulate the absorption area of the jejunum needs to be evaluated.
The estimated liquid volume under fasted conditions of the jejunum is ca. 20 mL.[45] However, in this work, solutions of 5 mL were selected in order to reduce the amount of biomimetic material used in every extraction protocol. Therefore, only 1/4 of the total PC amount calculated above (ca. 9 μmol) should be used to maintain the PC to jejunum liquid ratio. A crucial experimental parameter in our work is the amount of PC-laden biopolymer necessary to simulate the absorption area of the jejunum.
With respect to the remainder of experimental parameters, a gentle agitation was performed at 15 rpm to just enable a good dispersion of the polymer in the test solution. The extraction time was set to 30 min according to the average intestinal transit time and the length of the jejunum over the total length of the small intestine.[46] Finally, the extraction temperature was set to 37 °C to simulate physiological conditions.
In addition, a new bioparameter, “RMBE” that stands for "Relative Mol BioExtraction", is herein proposed for the first time. RMBE is defined as the extraction efficiency expressed as mol of analyte extracted per mol of PC attached to the biomimetic material under physiologically simulated conditions (e.g., extraction using PBS buffer at 37 °C, or gastrointestinal fluid surrogates, or actual human fluids, among others).

[2] = Dispersive extraction with the free polymer (GMA monolith); format: physicochemical; conditions: free polymer without PC
[3] = Dispersive extraction with the polymer prior to PC attachment (GMA@HMD@GA@HMD); format: physicochemical
[4] = test system: human jejunum; conditions: value = Peff x 10^4; cited from earlier work

Compound	d-BMSPE extraction efficiency [1]	RMBE·10^4 (relative mol bioextraction) [1]	extraction efficiency, GMA monolith [2]	extraction efficiency, GMA@HMD@GA@HMD [3]	experimental Peff·10^4 [4]
O=C(O)Cc1ccccc1Nc1c(Cl)cccc1Cl [DCF, diclofenac]	10.6 ± 1.1%	22.6 ± 0.8 mol CEC/mol PC	~100%	~40%	1.6[40] cm/ s
NS(=O)(=O)c1cc(C(=O)O)c(NCc2ccco2)cc1Cl [FUR, furosemide]	26.3 ± 1.1%	49.8 ± 0.9 mol CEC/mol PC	–	–	0.6[49] cm/ s
Cc1cnc(C(=O)NCCc2ccc(S(=O)(=O)NC(=O)NC3CCCCC3)cc2)cn1 [GLP, glipizide]	–	–	–	–	0.9[38] cm/ s
CN/C(=N/CCSCc1nc[nH]c1C)NC#N [CTM, cimetidine]	4.6 ± 2.1%	9.6 ± 1.7 mol CEC/mol PC	–	–	0.8[51] cm/ s
CN(C)C(=N)N=C(N)N [MET, metformin]	0.9% and 0.9 ± 0.1%	3.6 ± 0.7 mol CEC/mol PC	–	–	0.1[52] cm/ s
CC1=C(C(=O)O)N2C(=O)[C@@H](NC(=O)[C@H](N)c3ccccc3)[C@H]2SC1 [CEX, cephalexin]	–	–	–	–	1.6[6] cm/ s
CC(=O)Nc1ccc(O)cc1 [PCT, paracetamol]	15.3 ± 0.8%	60.3 ± 1.5 mol CEC/mol PC	–	–	4.0[6] cm/ s
